Strand notation (5' to 3'): a small letter for the sugar, then the base; units joined by * are phosphorothioate-linked, units joined directly phosphodiester-linked; [ ] holds rarer units or linkages, { } end groups; capitals alone tell only the bases. e = 2'-O-(2-methoxyethyl) (MOE); [5mC] = 5-methylcytosine; d = 2'-deoxy (DNA)
How the values were obtained:
PTP1B mRNA [1] = test: Dose response for human PTP1B in HuVEC cells, Primer Probe Set 3000 (Example 25, Table 87); type: cell-based
Description: (§1) Human vascular endothelial (HuVEC) cells were plated at a density of 5000 cells per well and treated as described herein with nM concentrations of short antisense compound as indicated in Table 86. After the treatment period, RNA was isolated from the cells and PTP1B mRNA levels were measured by quantitative real-time PCR, as described herein. PTP1B mRNA levels were adjusted according to total RNA content as measured by RIBOGREEN®. Two different human PTP1B primer probe sets were used to measure mRNA levels. Results with Primer Probe Set (PPS) 198 are shown in Table 86, and results with Primer Probe Set (PPS) 3000 are shown in Table 87. Results are presented as percent inhibition of PTP1B mRNA expression relative to untreated control cells.

PTP1B mRNA [2] = test: Dose response for human PTP1B in HuVEC cells, Primer Probe Set 198 (Example 25, Table 86); type: cell-based
Description: as §1

PCSK9 mRNA = type: cell-based, human; details: Hep3B cells, 100 nM, relative to untreated control cells; for % Inhib (PCSK9 mRNA): 0 = no reduction observed
Description: When cells reached appropriate confluency, they were treated with oligonucleotide using LIPOFECTIN® as described. […] Cells were treated and data were obtained in duplicate or triplicate. […] Cells were harvested 16-24 hours after oligonucleotide treatment.
Short antisense compounds targeted to a PCSK9 nucleic acid were tested for their effects on PCSK9 mRNA in vitro. The Isis No, gapmer motif and SEQ ID NO of each short antisense compound are shown again in Table 75. Cultured Hep3B cells were treated with 100 nM of short antisense compound. 5-10-5 MOE gapmers targeted to a PCSK9 nucleic acid were used as positive controls. After the treatment period, RNA was isolated from the cells and PCSK9 mRNA levels were measured by quantitative real-time PCR, as described herein. PCSK9 mRNA levels were adjusted according to total RNA content as measured by RIBOGREEN®. Results are presented in Table 75 as percent inhibition of PCSK9 (% Inhib), relative to untreated control cells.

Substance	% Inhibition of PTP1B mRNA (PTP1B mRNA [1]; PPS 3000, 1.11 nM) [%]	% Inhibition of PTP1B mRNA (PTP1B mRNA [1]; PPS 3000, 3.33 nM) [%]	% Inhibition of PTP1B mRNA (PTP1B mRNA [1]; PPS 3000, 10.0 nM) [%]	% Inhibition of PTP1B mRNA (PTP1B mRNA [1]; PPS 3000, 30.0 nM) [%]	% Inhibition of PTP1B mRNA (PTP1B mRNA [2]; PPS 198, 1.11 nM) [%]	% Inhibition of PTP1B mRNA (PTP1B mRNA [2]; PPS 198, 3.33 nM) [%]	% Inhibition of PTP1B mRNA (PTP1B mRNA [2]; PPS 198, 10.0 nM) [%]	% Inhibition of PTP1B mRNA (PTP1B mRNA [2]; PPS 198, 30.0 nM) [%]	% Inhib (PCSK9 mRNA) (PCSK9 mRNA) [%]	% Inhibition Range (PCSK9 mRNA) (PCSK9 mRNA)
399315 (antisense eG*eG*d[5mC]*dA*dA*d[5mC]*dT*dT*d[5mC]*dA*dA*d[5mC]*e[5mC]*eT) [compound 399315]	0	25	71	93	0	20	68	88	–	–
398173 (antisense e[5mC]*dA*dG*d[5mC]*d[5mC]*dT*dG*dG*dG*d[5mC]*dA*e[5mC]) [compound 398173]	0	18	80	90	0	4	80	97	–	–
398105 (antisense eT*eG*d[5mC]*dA*d[5mC]*dA*dG*dG*d[5mC]*dA*dG*dG*eT*eT) [compound 398105]	0	35	79	93	0	25	79	90	–	–
398112 (antisense e[5mC]*eA*dG*d[5mC]*d[5mC]*dT*dG*dG*d[5mC]*dA*d[5mC]*d[5mC]*eT*eA) [compound 398112]	0	26	77	94	1	10	73	93	–	–
399276 (antisense eG*eA*dG*dG*dT*dA*dT*d[5mC]*d[5mC]*d[5mC]*dA*dT*e[5mC]*eT) [compound 399276]	0	14	64	86	0	8	61	89	–	–
399113 (antisense eG*eT*dT*dA*dG*dG*d[5mC]*dA*dA*dA*dG*dG*eG*e[5mC]) [compound 399113]	0	9	65	90	0	31	72	90	–	–
399132 (antisense eG*eG*dG*d[5mC]*dT*dG*dA*dG*dT*dG*dA*d[5mC]*e[5mC]*e[5mC]) [compound 399132]	0	26	76	91	0	32	75	95	–	–
400335 (e[5mC]*e[5mC]*dT*d[5mC]*dA*dG*dG*dG*dA*dA*d[5mC]*d[5mC]*eA*eG; antisense) [compound 400335]	–	–	–	–	–	–	–	–	0	–
400338 (eG*eG*dT*d[5mC]*d[5mC]*dT*d[5mC]*dA*dG*dG*dG*dA*eA*e[5mC]; antisense) [compound 400338]	–	–	–	–	–	–	–	–	9	–
400332 (e[5mC]*eA*dG*dG*dG*dA*dA*d[5mC]*d[5mC]*dA*dG*dG*e[5mC]*e[5mC]; antisense) [compound 400332]	–	–	–	–	–	–	–	–	0	–
400339 (eT*eG*dG*dT*d[5mC]*d[5mC]*dT*d[5mC]*dA*dG*dG*dG*eA*eA; antisense) [compound 400339]	–	–	–	–	–	–	–	–	0	–
399096 (antisense eT*eG*d[5mC]*dT*d[5mC]*dG*dA*dA*d[5mC]*dT*d[5mC]*d[5mC]*eT*eT) [compound 399096]	0	23	75	94	3	30	78	96	–	–
400304 (antisense eG*eA*dG*dA*dT*dA*d[5mC]*dA*d[5mC]*d[5mC]*dT*d[5mC]*e[5mC]*eA) [compound 400304]	–	–	–	–	–	–	–	–	11	10-20%
